Data published in patent US9243281B2, “Neuroprotective chemicals and methods for identifying and using same” (Board of Regents of The University of Texas System, priority 2013, dated 2016).

How the values were obtained:
[1] = system: hippocampal neurogenesis (Dentate Gyrus); test: in vivo neurogenesis assay (BrdU+ cells in dentate gyrus); set-up: species or system mice; conditions: living mice; vehicle (DMSO) 7.3
Text: The screen was simple in concept. With help from chemists in the Department of Biochemistry at UTSWMC, we selected 1,000 druglike chemicals from the 250,000 compounds in our high throughput screening center. The compounds were selected to preserve representative chemical diversity of the entire library. They were further selected to enhance the representation of chiral molecules, and to avoid untoward chemical properties such as reactive moieties. The 1,000 molecules were randomly pooled into groups of ten, and each pool was administered directly into the left ventricle of two adult mice. Intracranial delivery was facilitated by stereotactic positioning of a canula fed directly by an Alzet mini-pump containing the mixture of ten chemicals. The drug mixture was administered over a week-long period at concentrations anticipated to deliver mid-nanomolar levels of the ten test compounds. Daily injections of the thymidine analog, bromodeoxyuridine (BrdU), were coadministered in order to monitor the formation of new hippocampal nerve cells. Following compound administration, animals were sacrificed such that brain tissue could be recovered, sectioned and stained with antibodies to BrdU. […]

[2] = target: T1, p70 (NAMPT) (Homo sapiens, UniProt P43490); test: binding competition for photo-crosslinking of P7C3-S326 to p70 in H2122 cells; conditions: 0.3 μM P7C3-S326 plus 5 μM competitor, p70 band intensity, P7C3-S326 alone compared with plus competitor, vehicle 1.0
T1 construct: endogenous in cells; host or cells: H2122 lung cancer cells
Method: Cultured cells were co-exposed to P7C3-S326 (0.3 uM) and the individual P7C3 variants (5 uM), exposed to UV light, lysed, clicked to a fluorescent dye and run on SDS gels (FIG. 11).
P7C3-S326 was diluted to 0.3 μM in culture medium to treat H2122 cells. After incubation at 37° C. for 2 hours, H2122 cells were irradiated for 15 minutes under 306 nm ultraviolet light in a Stratalinker 2400 (Stratagene). Cells were then harvested by dissolving in 1% SDS lysis buffer 50 mM HEPES, pH 8.0, 2 mM MgCl2, 10 mM KCl, 1% SDS, 50 units/ml of Benzonase (Sigma), supplemented with Sigmafast protease inhibitor (Sigma).
The reaction was incubated at room temperature with constant agitation at 1,000 rpm on a thermomixer (Eppendorf) for 1 hour. Samples were then mixed with SDS sample loading buffer and loaded on an 8% SDS-PAGE gel, separated, and imaged using a Typhoon imager (filter settings: excitation 533 nm, emission 555 nm, and high sensitivity).
H2122 cells were incubated with the P7C3-S326 (0.3 μM) in the absence or presence of P7C3 analogs for 2 hours following by UV crosslinking. […] The samples were run on SDS-PAGE gels scanned using a Typhoon Imager. The p70 band intensity was analyzed and quantified by Image J, and the relative intensity in each assay was normalized to that of the DMSO control.

T1 sequence (P43490 whole entry): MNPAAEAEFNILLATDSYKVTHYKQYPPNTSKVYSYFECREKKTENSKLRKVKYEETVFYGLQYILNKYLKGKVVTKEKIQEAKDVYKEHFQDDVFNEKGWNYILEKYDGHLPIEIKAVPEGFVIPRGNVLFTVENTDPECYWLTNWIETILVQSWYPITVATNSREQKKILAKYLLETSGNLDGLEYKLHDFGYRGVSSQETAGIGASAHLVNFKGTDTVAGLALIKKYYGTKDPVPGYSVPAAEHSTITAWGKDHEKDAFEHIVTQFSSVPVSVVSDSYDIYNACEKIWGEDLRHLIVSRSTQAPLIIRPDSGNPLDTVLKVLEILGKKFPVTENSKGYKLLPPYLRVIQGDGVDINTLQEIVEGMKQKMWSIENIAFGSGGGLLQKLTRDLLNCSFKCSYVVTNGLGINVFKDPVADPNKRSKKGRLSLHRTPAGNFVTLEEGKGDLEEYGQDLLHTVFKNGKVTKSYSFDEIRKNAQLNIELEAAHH

Row | Structure (SMILES) | Neurogenesis # BrdU+ Cells (X10E06)/mm3 Dentate Gyrus [1] | Binding competition [2]
1 | COc1c(Br)cc(OC)c2c1c1cc(Br)ccc1n2CC(O)CNc1ccccc1 (centres unmarked) [S160] | 13.1 (X10E06)/mm3 | 4.3
2 | CNCC(F)CN1c2ccccc2CCc2ccccc21 (centres unmarked) [S152] | 13.4 (X10E06)/mm3 | 1.6
3 | O=C(O)c1ccc2[nH]c3ccc(Br)cc3c2c1 [S225] | 15.2 (X10E06)/mm3 | 2.2
4 | CC(O)(COc1ccccc1)Cn1c2ccc(C#N)cc2c2cc(C#N)ccc21 (centres unmarked) [S177] | 13.9 (X10E06)/mm3 | 4.3
5 | CN(C)CC(F)CN1c2ccccc2CCc2ccccc21 (centres unmarked) [S148, reference compound] | 11.3 (X10E06)/mm3 | 1.3
6 | C=C/C=N\C=C\NCC(O)Cn1c2ccc(Br)cc2c2cc(Br)ccc21 (centres unmarked) [S58] | 7.2 (X10E06)/mm3 | 2.5
7 | Nc1cccc(SCC(O)Cn2c3ccc(Br)cc3c3cc(Br)ccc32)c1 (centres unmarked) [S95] | 8.6 (X10E06)/mm3 | 4.6
8 | CNCCCC1c2ccccc2C=Cc2ccccc21.Cl [S90, Protriptyline, reference compound] | 11.1 (X10E06)/mm3 | 1.4
9 | COc1cccc(NC(=O)C(O)Cn2c3ccc(Br)cc3c3cc(Br)ccc32)c1 (centres unmarked) [S31] | 10.4 (X10E06)/mm3 | 6.2
10 | N#Cc1ccc2c(c1)c1cc(Br)ccc1n2CC(=O)O [S224] | 10.1 (X10E06)/mm3 | 1.3
11 | Cc1c(C)n(CC(O)CNc2ccccc2)c2ccc(Br)cc12 (centres unmarked) [S18] | 10.9 (X10E06)/mm3 | 1.7
12 | COc1cccc(N(/C=C/Cn2c3ccc(Br)cc3c3cc(Br)ccc32)S(=O)(=O)C(F)(F)F)c1 [S179] | 17.3 (X10E06)/mm3 | 0.9
13 | O=C(COc1cccc(SCC(O)Cn2c3ccc(Br)cc3c3cc(Br)ccc32)c1)NCc1ccccc1 (centres unmarked) [S98] | 6.9 (X10E06)/mm3 | 1.1
14 | OC(COC1CCCCC1)Cn1c2ccc(Br)cc2c2cc(Br)ccc21 (centres unmarked) [S178] | 13.8 (X10E06)/mm3 | 1.7
15 | CCOC(=O)Cn1c2ccc(Br)cc2c2cc(Br)ccc21 [S164] | 7.6 (X10E06)/mm3 | 1.3
16 | COc1ccc2[nH]c3ccc(Br)cc3c2c1 [S209] | 15.0 (X10E06)/mm3 | 3.7
17 | Cc1ccc2[nH]c3ccc(Br)cc3c2c1 [S228] | 20.2 (X10E06)/mm3 | 2.0
18 | OC(CNc1ccccc1)Cn1c2ccc(I)cc2c2cc(I)ccc21 (centres unmarked) [S63] | 8.3 (X10E06)/mm3 | 1.5
19 | OC(CNc1ccccc1)CN(c1ccc(Br)cc1)c1ccc(Br)cc1 (centres unmarked) [S72] | 11.7 (X10E06)/mm3 | 1.4
20 | OC(CN1c2ccccc2CCc2ccccc21)CN1c2ccccc2CCc2ccccc21 [S170] | 11.2 (X10E06)/mm3 | 1.5
21 | CCOC(=O)c1ncc2c(n1)c1ccccc1n2S(=O)(=O)c1ccc(C)cc1 [S246] | 14.5 (X10E06)/mm3 | 1.3
22 | COc1cccc(N(CC(F)Cn2c3ccc(Br)cc3c3cc(Br)ccc32)S(=O)(=O)C(F)(F)F)c1 (centres unmarked) [S241] | 15.5 (X10E06)/mm3 | 1.3
23 | COc1ccc(SCC(F)Cn2c3ccc(Br)cc3c3cc(Br)ccc32)cc1 (centres unmarked) [S80] | 13.0 (X10E06)/mm3 | 0.9
24 | N#Cc1ccc2c(c1)c1cc(C#N)ccc1n2CC(O)COc1ccccc1 (centres unmarked) [S111] | 12.3 (X10E06)/mm3 | 4.1
25 | CN(C)C(CF)CN1c2ccccc2CCc2ccccc21 (centres unmarked) [S149] | 11.6 (X10E06)/mm3 | 1.2

Row | Structure (SMILES) | Neurogenesis # BrdU+ Cells (X10E06)/mm3 Dentate Gyrus [1] | Binding competition [2]
26 | O=C(O)Cn1c2ccc(Br)cc2c2cc(C(=O)O)ccc21 [S239] | 11.4 (X10E06)/mm3 | 0.9
27 | NC(Cc1c[nH]c2ccc(Br)cc12)C(=O)O (centres unmarked) [S207] | 16.2 (X10E06)/mm3 | 1.1
28 | NC(=O)c1ccc2c(c1)c1cc(Br)ccc1n2CC(O)COc1ccccc1 (centres unmarked) [S146] | 14.5 (X10E06)/mm3 | 2.8
29 | CC(C)(C)OC(=O)CCOCCOCCOCCOc1cccc(NCC(O)Cn2c3ccc(Br)cc3c3cc(Br)ccc32)c1 (centres unmarked) [S157] | 10.2 (X10E06)/mm3 | 1.5
30 | CN(C)C(=O)COc1ccc(NCC(F)Cn2c3ccc(Br)cc3c3cc(Br)ccc32)cc1 (centres unmarked) [S70] | 7.4 (X10E06)/mm3 | 2.5
31 | COc1cccc(NC[C@@H](O)Cn2c3ccc(Br)cc3c3cc(Br)ccc32)c1 [S17] | 14.9 (X10E06)/mm3 | 1.9
32 | COc1cccc(NCC(O)Cn2c3ccc(C)cc3c3cc(Br)ccc32)c1 (centres unmarked) [S14] | 13.5 (X10E06)/mm3 | 4.5
33 | [O-][S+](CC(O)Cn1c2ccc(Br)cc2c2cc(Br)ccc21)c1ccccc1 (centres unmarked) [S27] | 8.1 (X10E06)/mm3 | 2.8
34 | N[C@@H](Cc1c[nH]c2ccccc12)C(=O)O [S248] | 10.1 (X10E06)/mm3 | 1.3
35 | COc1cccc(NCC(O)CN2c3ccccc3CCc3ccccc32)c1 (centres unmarked) [S158] | 12.5 (X10E06)/mm3 | 1.3
36 | Cc1cc(Br)cc2c3cc(Br)cc(C)c3n(CC(O)CNc3ccccc3)c12 (centres unmarked) [S161] | 11.4 (X10E06)/mm3 | 3.1
37 | OC(COc1ccccc1)Cn1c2ccc(Br)cc2c2cc(Br)cnc21 (centres unmarked) [S187] | 12.6 (X10E06)/mm3 | 2.9
38 | O=S(=O)(C[C@@H](O)Cn1c2ccc(Br)cc2c2cc(Br)ccc21)c1ccccc1 [S50] | 16.2 (X10E06)/mm3 | 3.8
39 | O[C@H](COc1ccccc1)Cn1c2ccc(Br)cc2c2cc(Br)ccc21 [S41] | 15.3 (X10E06)/mm3 | 3.4
40 | CC(C(N)=O)n1c2ccc(Br)cc2c2cc(Br)ccc21 (centres unmarked) [S220] | 10.5 (X10E06)/mm3 | 2.9
41 | [N-]=[N+]=Nc1ccc(NCC(O)Cn2c3ccc(Br)cc3c3cc(Br)ccc32)cc1 (centres unmarked) [S48] | 14.5 (X10E06)/mm3 | 3.4
42 | O=S(=O)(CC(O)Cn1c2ccc(Br)cc2c2cc(Br)ccc21)c1ccc(OCCF)cc1 (centres unmarked) [S156] | 15.0 (X10E06)/mm3 | 1.2
43 | OC(CNc1ncccn1)Cn1c2ccc(Br)cc2c2cc(Br)ccc21 (centres unmarked) [S8] | 7.8 (X10E06)/mm3 | 4.7
44 | NC(=O)c1ccc2c(c1)c1cc(Br)ccc1n2CC(=O)O [S238] | 9.4 (X10E06)/mm3 | 0.9
45 | COc1cccc(NCC(O)Cn2c3ccc(Br)cc3c3cc(N=[N+]=[N-])ccc32)c1 (centres unmarked) [S47] | 10.1 (X10E06)/mm3 | 5.5
46 | O=C(CCCCCC1SCC2NC(=O)NC21)NCCCCCOc1cccc(NCC(O)Cn2c3ccc(Br)cc3c3cc(Br)ccc32)c1 (centres unmarked) [S219] | 8.4 (X10E06)/mm3 | 3.1
47 | OC(CN1c2ccccc2CCc2ccccc21)Cn1c2ccccc2c2ccccc21 (centres unmarked) [S133] | 10.1 (X10E06)/mm3 | 1.2
48 | Oc1ccc(SCC(O)Cn2c3ccc(Br)cc3c3cc(Br)ccc32)cc1 (centres unmarked) [S92] | 8.4 (X10E06)/mm3 | 2.5
49 | CNCC(O)CN1c2ccccc2CCc2ccccc21 (centres unmarked) [S143] | 7.3 (X10E06)/mm3 | 1.3
